Here are results for one compound from patent US20130172191A1, “STABLE ETHYLENE INHIBITING COMPOUNDS AND METHODS FOR THEIR PREPARATION” (priority 2002, published 2013).

Structures are written as SMILES.

A short description of data set [1]: Control experiment: 1,2-diiodo-1-methylcyclopropane in tetrahydrofuran without reagent, GC of headspace. To be noted: 0.30 g in 2 ml tetrahydrofuran, no reagent, stirring 5 minutes; 1 ppm easily detectable. The format is physicochemical. The protocol: (§1) Into a 50 ml Florence flask with magnetic stirring was placed 2 ml of tetrahydrofuran and 0.30 g of 1,2-diiodo-1-methylcyclopropane. […] GC method uses Varian CP-PoraBOND Q column 10 meters long 0.32 mm ID; helium carrier; initial temperature 50° C.; initial time 0 minutes; ramp rate 20° C./min; final temperature 270° C.; final time 5 minutes; injection volume 0.20 ml. The retention time of an authentic sample of 1-methylcyclopropene was 2.91 minutes. 1 ppm is easily detectable under these conditions.

A short description of data set [2]: Chemically induced release of a cyclopropene (1-methylcyclopropene) by a reducing or nucleophilic agent, GC of headspace. The format is physicochemical. How it is done:
as §1
Into a 100 ml Florence flask with magnetic stirring was placed 2 ml of tetrahydrofuran and 1.0 g of zinc dust. The zinc was activated with 10 drops of 1,2-dibromoethane. Then 0.34 g of 1,2-diiodo-1-methylcyclopropane was added.
Into a 100 ml Florence flask with magnetic stirring was placed 2 ml of methanol and 1.0 g of zinc dust. The zinc was activated with 10 drops of 1,2-dibromoethane. Then 0.34 g of 1,2-diiodo-1-methylcyclopropane was added.
Into a 100 ml Florence flask with magnetic stirring was placed 2 ml of tetrahydrofuran and 1.1 g of magnesium turnings. The magnesium was activated with 10 drops of 1,2-dibromoethane. Then 0.35 g of 1,2-diiodo-1-methylcyclopropane was added.
Into a 50 ml Florence flask with magnetic stirring was placed 3 g of dimethylformamide and 1.2 g of triphenylphosphine. Then 0.83 g of 1,2-diiodo-1-methylcyclopropane was added.
Into a 100 ml Florence flask with magnetic stirring was placed 2 g of dimethylformamide, 0.70 g of potassium t-butoxide, and 0.84 g of 4-methylbenzenethiol. Then 0.40 g of 1,2-diiodo-1-methylcyclopropane was added.
The polymeric reagent was prepared by slurrying 50 ml of Duolite™ GT73 (Rohm and Haas Company) and stirring for two hours with 50 ml of water and 10 g of 45% aqueous potassium hydroxide. The slurry was filtered, washed twice with water, thrice with methanol, air dried, and placed in a vacuum oven overnight. 0.54 g of this polymeric reagent was placed in a 122 ml vial and the beads were wetted with 0.10 g of 1,2-diiodo-1-methylcyclopropane in 0.70 g of methanol.

For the compound `CC1(I)CC1I` (stereo not shown) [Example 60, 1,2-diiodo-1-methylcyclopropane], the “1-methylcyclopropene in headspace (GC analysis)” value is given as “no detectable 1-methylcyclopropene” in data set [1]; 87567 ppm in data set [2] (4-methylbenzenethiol 0.84 g, potassium t-butoxide 0.70 g in 2 g dimethylformamide, 0.40 g precursor, 100 ml flask, 15 minutes at room temperature); 49993 ppm in data set [2] (magnesium turnings 1.1 g (activated with 1,2-dibromoethane) in 2 ml tetrahydrofuran, 0.35 g precursor, 100 ml flask, stirring 3 hours); 134 ppm in data set [2] (polymeric benzenethiol reagent (Duolite GT73, KOH treated) 0.54 g, 0.10 g precursor in 0.70 g methanol, 122 ml vial, overnight at room temperature); 10 ppm in data set [2] (triphenylphosphine 1.2 g in 3 g dimethylformamide, 0.83 g precursor, 50 ml flask, 15 minutes at room temperature); 98390 ppm in data set [2] (zinc dust 1.0 g (activated with 1,2-dibromoethane) in 2 ml methanol, 0.34 g precursor, 100 ml flask, stirring 30 minutes). Further, the “1-methylcyclopropene in headspace (GC analysis)” value in data set [2] (zinc dust 1.0 g (activated with 1,2-dibromoethane) in 2 ml tetrahydrofuran, 0.34 g precursor, 100 ml flask, stirring 20 hours) came out at 4658 ppm.
